Measured values as given in patent US20180100859A1, “SURROGATE FUNCTIONAL BIOMARKER FOR SOLID TUMOR CANCER” (EUTROPICS PHARMACEUTICALS, INC., priority 2015, published 2018).

Experiments:
Type in all cases: cell-based
[1] = molecular target: Bcl-xL/Bim heterodimer in SKBR3 breast cancer cells (Homo sapiens, UniProt Q07817); test: Detection of Bcl-xL/Bim heterodimer with ANTI-HSBXB antibody in treated breast cancer cells, LI-COR imager
Method: ABT-263 is a pro-apoptotic compound that can be used on whole cells to disrupt BH3 mediated interactions. Disruption of these heterodimers in treated cells is detected as loss of ANTI-HSBXB signal. Here the cells were treated with various concentrations of ABT-263 for 10 hours at 37° C., then rinsed, fixed with 4% PFA, and incubated with ANTI-HSBXB (a Bcl-xL/Bim heterodimer-specific antibody). IRDye 800CW goat anti-mouse antibody was used to detect the heterodimer specific mouse monoclonal antibody, and IRDye 800CW Goat anti-rabbit antibody was used to detect a commercial Bcl-xL rabbit monoclonal antibody. Cell numbers were normalized by using CellTag 700 Stain.

[2] = test system: Molm 13 cells; test: Mitochondrial (BH3) profiling, Bcl-xL priming; conditions: Molm 13 leukemia cell line, FIG. 3
[3] = test system: AHR cells; test: Mitochondrial (BH3) profiling, Bcl-xL priming; conditions: AHR leukemia cell line, FIG. 3
Description: The Bcl-xL/Bim heterodimer (HSBXB) can be detected by flow cytometry using a method for intracellular staining with the HSBXB antibody. Three leukemia cell lines, AHR, DHL6 and MOLM 13 were chosen based on their having differing amounts of Bcl-xL, Bim priming as determined by mitochondrial profiling. Consequently, the response to the Bcl-xL restricted, the Bcl-xL/Bim dimer “priming”, is known to be present at different amounts. A high signal mediated by Hrk-BH3 peptide indicates the existence of Bcl-xL/Bim heterodimer.
The HSBXB signal was assessed by flow cytometry and compared to the Hrk-BH3 peptide signal in the BH3 profiling assay. Here, AHR, DHL6 and MOLM13 cells were incubated on ice for 3 hours, and then washed and incubated with HSBXB antibody or Bcl-xL antibody at 10 ug/ml for 20 minutes, and then washed and stained with secondary Alexa488-conjugated goat anti-mouse. Signals were corrected to IgG-2A isotype or secondary alone control. The Hrk-BH3 signal in the mitochondrial profiling of the three cell lines was plotted against normalized HSBXB FACS signal.

[4] = test system: DHL-6 cells; test: Mitochondrial (BH3) profiling, Bcl-xL priming; conditions: DHL-6 leukemia cell line, compared with Molm 13, FIG. 3

Sequence of Bcl-xL/Bim heterodimer in SKBR3 breast cancer cells (Q07817 whole entry, one chain of several): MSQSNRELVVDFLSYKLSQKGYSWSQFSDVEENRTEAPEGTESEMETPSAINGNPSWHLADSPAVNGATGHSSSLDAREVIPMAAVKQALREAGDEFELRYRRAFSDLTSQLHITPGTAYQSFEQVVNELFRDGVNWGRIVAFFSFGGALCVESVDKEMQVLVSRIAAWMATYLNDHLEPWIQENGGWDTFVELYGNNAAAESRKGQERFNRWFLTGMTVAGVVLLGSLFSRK

Compound	time window where the disruption can be detected prior to caspase mediated membrane disruption [1] [h]	percent heterodimer specific signal (ANTI-HSBXB detection) ([1]; various concentrations, 10 hours at 37° C., FIG. 2)	degree of Bcl-xL priming relative to positive control [2]	degree of Bcl-xL priming relative to positive control [3]	degree of Bcl-xL priming relative to positive control [4]
CC1(C)CCC(c2ccc(Cl)cc2)=C(CN2CCN(c3ccc(C(=O)NS(=O)(=O)c4ccc(N[C@H](CCN5CCOCC5)CSc5ccccc5)c(S(=O)(=O)C(F)(F)F)c4)cc3)CC2)C1 [ABT-263]	10 to 12	decreasing the quantity of ANTI-HSBXB detection			
Hrk-BH3: BH3 peptide HRK, SSAAQLTAARLKALGDELHQ, SEQ ID NO 8; Bcl-xL restricted (listed as Homo sapiens)			less than 5%	above 60%	slightly higher
